According to patent publication US6777412B2 (priority 1990, dated 2004):
Like-named read-outs stand apart in the source and are kept apart here. Marks after values point to notes of the source that are not given here.

Experiments:
Type in all cases: in vivo
Septoria nodorum = experiment: Foliar fungal disease test on plants: Septoria nodorum (Sn); conditions: 100 ppm active ingredient foliar spray plus root drench (approx. 40 ppm a.i. in dry soil), one or two days before inoculation
Description: (§1) The compounds were tested against a variety of foliar fungal diseases of plants. The technique employed was as follows.
(§2) The plants were grown in John Innes Potting Compost (No.1 or 2) in 4 cm diameter minipots. The test compounds were formulated either by bead milling with aqueous Dispersol T or as a solution in acetone or acetone/ethanol which was diluted to the required concentration immediately before use. For the foliage diseases, the formulations (100 ppm active ingredient except where otherwise indicated) were sprayed onto the foliage and applied to the roots of the plants in the soil. The sprays were applied to maximum retention and the root drenches to a final concentration equivalent to approximately 40 ppm a.i. in dry soil. Tween 20, to give a final concentration of 0.05%, was added when the sprays were applied to cereals.
(§3) For most of the tests the compound was applied to the soil (roots) and to the foliage (by spraying) one or two days before the plant was inoculated with the disease. An exception was the test on Erysiphe graminis in which the plants were inoculated 24 hours before treatment. Foliar pathogens were applied by spray as spore suspensions onto the leaves of test plants. After inoculation, the plants were put into an appropriate environment to allow infection to proceed and then incubated until the disease was ready for assessment. The period between inoculation and assessment varied from four to fourteen days according to the disease and environment.
(§4) The disease control vas recorded by the following grading:
(§5) 3=trace-5% of disease on untreated plants
(§6) 2=6-25% of disease on untreated plants
(§7) 1=26-59% of disease on untreated plants
(§8) 0=60-100% of disease on untreated plants

Plasmopara viticola = experiment: Foliar fungal disease test on plants: Plasmopara viticola (Pv)
Description: as §1, §2, §3, §4, §5, §6, §7, §8

Pyricularia oryzae = tested on: Pyricularia oryzae
[1] = tested on: Erysiphe graminis tritici; experiment: Foliar fungal disease test on plants: Erysiphe graminis tritici (Egt); conditions: 100 ppm active ingredient foliar spray plus root drench (approx. 40 ppm a.i. in dry soil); plants inoculated 24 hours before treatment
Description: as §1, §2, §3, §4, §5, §6, §7, §8
Egt Erysiphe graminis tritici

Puccinia recondita = experiment: Foliar fungal disease test on plants: Puccinia recondita (Pr)
Description: as §1, §2, §3, §4, §5, §6, §7, §8

[2] = tested on: Phytophthora infestans lycopersici
Venturia inaequalis = experiment: Foliar fungal disease test on plants: Venturia inaequalis (Vi)
Description: as §1, §2, §3, §4, §5, §6, §7, §8

Erysiphe graminis hordei = experiment: Foliar fungal disease test on plants: Erysiphe graminis hordei (Egh)
Description: as §1, §2, §3, §4, §5, §6, §7, §8
Egh Erysiphe graminis hordei

[3] = 100 ppm active ingredient foliar spray plus root drench (approx. 40 ppm a.i. in dry soil), one or two days before inoculation
[4] = 100 ppm active ingredient foliar spray plus root drench (approx. 40 ppm a.i. in dry soil), plants inoculated 24 hours before treatment

Structure (SMILES) | disease control grading, Sn (Septoria nodorum) (Septoria nodorum) | disease control grading, Pv (Plasmopara viticola) (Plasmopara viticola; [3]) | disease control grading, Po (Pyricularia oryzae) (Pyricularia oryzae; [3]) | disease control grading, Egt (Erysiphe graminis tritici) [1] | disease control grading, Pr (Puccinia recondita) (Puccinia recondita; [3]) | disease control grading, Pil (Phytophthora infestans lycopersici) [2, 3] | disease control grading, Vi (Venturia inaegualis) (Venturia inaequalis; [3]) | disease control grading, Egh (Erysiphe graminis hordei) (Erysiphe graminis hordei; [4]) | disease control grading, Pr (Puccinia recondita) (Puccinia recondita; 10 ppm foliar application only) | disease control grading, Pv (Plasmopara viticola) (Plasmopara viticola; 10 ppm foliar application only) | disease control grading, Pil (Phytophthora infestans lycopersici) ([2]; 10 ppm foliar application only) | disease control grading, Po (Pyricularia oryzae) (Pyricularia oryzae; 10 ppm foliar application only) | disease control grading, Vi (Venturia inaegualis) (Venturia inaequalis; 10 ppm foliar application only) | disease control grading, Egh (Erysiphe graminis hordei) (Erysiphe graminis hordei; 10 ppm foliar application only)
CO/C=C(/C(=O)OC)c1ccccc1Oc1cc(OCc2ccncn2)ncn1 [250 of Table I] | 4 (4=no disease) | 4 (4=no disease) | 2 (2=6-25% of disease on untreated plants) | 4 (4=no disease) |  |  |  |  |  |  |  |  |  | 
CO/C=C(/C(=O)OC)c1ccccc1Oc1cc(OCCc2ccccc2OC)ncn1 [365 of Table I] |  | 4 (4=no disease) | 4 (4=no disease) |  | 4 (4=no disease) | 4 (4=no disease) | 4 (4=no disease) | 4 (4=no disease) |  |  |  |  |  | 
CO/C=C(/C(=O)OC)c1ccccc1Oc1cc(OCCc2ccccc2F)ncn1 [366 of Table I] |  | 4 (4=no disease) | 4 (4=no disease) |  | 4 (4=no disease) | 4 (4=no disease) | 4 (4=no disease) | 4 (4=no disease) |  |  |  |  |  | 
CO/C=C(/C(=O)OC)c1ccccc1Oc1cc(NC(=S)c2ccccc2O)ncn1 [367 of Table I] |  |  |  |  |  |  |  |  | 4^a (4=no disease) | 4^a (4=no disease) | 0^a (0=60-100% of disease on untreated plants) | 0^a (0=60-100% of disease on untreated plants) | 2^a (2=6-25% of disease on untreated plants) | 3^a (3=trace-5% of disease on untreated plants)
CO/C=C(/C(=O)OC)c1ccccc1Oc1cc(OCCc2ccccc2Cl)ncn1 [368 of Table I] |  | 4 (4=no disease) | 3 (3=trace-5% of disease on untreated plants) |  | 4 (4=no disease) | 3 (3=trace-5% of disease on untreated plants) | 4 (4=no disease) | 4 (4=no disease) |  |  |  |  |  | 
CO/C=C(/C(=O)OC)c1ccccc1Oc1cc(OC(C#N)c2ccccc2)ncn1 (stereo not shown) [369 of Table I] |  | 4 (4=no disease) | 4 (4=no disease) |  | 4 (4=no disease) | 3 (3=trace-5% of disease on untreated plants) | 4 (4=no disease) | 4 (4=no disease) |  |  |  |  |  | 
CO/C=C(/C(=O)OC)c1ccccc1Oc1cc(OCCc2c(F)cccc2F)ncn1 [370 of Table I] |  | 4 (4=no disease) | 4 (4=no disease) |  | 4 (4=no disease) | 4 (4=no disease) | 4 (4=no disease) | 4 (4=no disease) |  |  |  |  |  | 
CO/C=C(/C(=O)OC)c1ccccc1Oc1cc(OC(c2ccccc2)C(F)(F)F)ncn1 (stereo not shown) [371 of Table I] |  | 4 (4=no disease) | 4 (4=no disease) |  | 4 (4=no disease) | 0 (0=60-100% of disease on untreated plants) | 4 (4=no disease) | 4 (4=no disease) |  |  |  |  |  | 
CO/C=C(/C(=O)OC)c1ccccc1Oc1cc(OCCc2c(F)cccc2Cl)ncn1 [372 of Table I] |  | 4 (4=no disease) | 4 (4=no disease) |  | 4 (4=no disease) | 4 (4=no disease) | 4 (4=no disease) | 4 (4=no disease) |  |  |  |  |  | 
CO/C=C(/C(=O)OC)c1ccccc1Oc1cc(OCCc2c(Cl)cccc2Cl)ncn1 [373 of Table I] |  | 4 (4=no disease) | 4 (4=no disease) |  | 4 (4=no disease) | 3 (3=trace-5% of disease on untreated plants) | 4 (4=no disease) | 4 (4=no disease) |  |  |  |  |  | 
CO/C=C(/C(=O)OC)c1ccccc1Oc1cc(OCc2c(F)cccc2F)ncn1 [374 of Table I] |  | 4 (4=no disease) | 4 (4=no disease) |  | 4 (4=no disease) | 4 (4=no disease) | 4 (4=no disease) | 4 (4=no disease) |  |  |  |  |  | 
CO/C=C(/C(=O)OC)c1ccccc1Oc1cc(Nc2ccccc2OC)ncn1 [380 of Table I] |  | 4 (4=no disease) | 4 (4=no disease) |  | 4 (4=no disease) | 3 (3=trace-5% of disease on untreated plants) | 4 (4=no disease) | 4 (4=no disease) |  |  |  |  |  | 
CO/C=C(/C(=O)OC)c1ccccc1Oc1cc(OS(=O)(=O)c2ccccc2C#N)ncn1 [381 of Table I] |  | 0 (0=60-100% of disease on untreated plants) | 2 (2=6-25% of disease on untreated plants) |  | 2 (2=6-25% of disease on untreated plants) | 0 (0=60-100% of disease on untreated plants) | 0 (0=60-100% of disease on untreated plants) | 0 (0=60-100% of disease on untreated plants) |  |  |  |  |  | 
CO/C=C(/C(=O)OC)c1ccccc1Oc1cc(OCCOc2c(F)cccc2F)ncn1 [382 of Table I] |  | 4 (4=no disease) | 4 (4=no disease) |  | 4 (4=no disease) | 4 (4=no disease) | 4 (4=no disease) | 4 (4=no disease) |  |  |  |  |  | 
CO/C=C(/C(=O)OC)c1ccccc1Oc1cc(OC/C=C/c2ccccc2C#N)ncn1 [395 of Table I] | 3 (3=trace-5% of disease on untreated plants) | 4 (4=no disease) | 4 (4=no disease) | 4 (4=no disease) | 4 (4=no disease) |  | 4 (4=no disease) |  |  |  |  |  |  | 
CO/C=C(/C(=O)OC)c1ccccc1Oc1cc(OCCOc2ccccc2C#N)ncn1 [396 of Table I] | 4 (4=no disease) | 4 (4=no disease) | 4 (4=no disease) | 4 (4=no disease) | 4 (4=no disease) |  | 3 (3=trace-5% of disease on untreated plants) |  |  |  |  |  |  | 
